Laboratory results reported in ChEMBL document CHEMBL1142877, “Synthesis and biological evaluation of 4-methylideneisoxazolidin-5-ones--a new class of highly cytotoxic alpha-methylidene-gamma-lactones” (Eur J Med Chem, 2007).
Values after ≈ are worked out from the molar mass of the structure shown. Active and inactive are the calls of the source. No cut-off for these calls is given here.

How the values were obtained:
HL-60 = experiment: Cytotoxicity against HL60 cells after 72 hrs by dye exclusion assay; format: functional, cell-based; conditions: Homo sapiens, HL-60, 72 h
Candida albicans = experiment: Antimicrobial activity against Candida albicans ATCC 10231 at 37.5 ug/mL by MTT reduction assay; format: functional, organism-based
[1] = Cytotoxicity against adriamycin-resistant HL60/ADR cells expressing MRP1 after 72 hrs by dye exclusion assay; format: functional, cell-based; conditions: Homo sapiens
Escherichia coli [2] = experiment: Antimicrobial activity against Escherichia coli NCTC 8196 at 300 ug/mL; format: functional, organism-based
Staphylococcus aureus [3] = experiment: Growth inhibition of Staphylococcus aureus ATCC 29213 at 150 ug/mL; format: functional, organism-based
[4] = system: Staphylococcus epidermidis; experiment: Growth inhibition of Staphylococcus epidermidis ATCC 12228 at 150 ug/mL; format: functional, organism-based
[5] = system: Staphylococcus epidermidis; experiment: Growth inhibition of Staphylococcus epidermidis ATCC 12228 at 300 ug/mL; format: functional, organism-based
Pseudomonas aeruginosa = experiment: Antimicrobial activity against Pseudomonas aeruginosa NCTC 6749; format: functional
Staphylococcus aureus [6] = experiment: Growth inhibition of Staphylococcus aureus ATCC 29213 at 300 ug/mL; format: functional, organism-based
Enterococcus faecalis = experiment: Antimicrobial activity against Enterococcus faecalis ATCC 29212; format: functional
Escherichia coli [7] = experiment: Antimicrobial activity against Escherichia coli NCTC 8196; format: functional

| MIC (Pseudomonas aeruginosa) | MIC (Enterococcus faecalis) | MIC (Escherichia coli [7]) | Structure (SMILES) | IC50 (HL-60) | Activity (Candida albicans) | IC50 [1] | Activity (Escherichia coli [2]) | Activity (Staphylococcus aureus [3]) | Activity [4] | Activity [5] | Activity (Staphylococcus aureus [6]) |
| --- | --- | --- | --- | --- | --- | --- | --- | --- | --- | --- | --- |
|  |  |  | COc1cccc2c1C(=O)c1c(O)c3c(c(O)c1C2=O)C[C@@](O)(C(=O)CO)C[C@@H]3O[C@H]1C[C@H](N)[C@H](O)[C@H](C)O1 [DOXORUBICIN] | 0.013 µM |  |  |  |  |  |  |  |
| 300 µg/mL (≈ 1480 µM) | ≥ 300 µg/mL |  | C=C1C(=O)ON(C)C1c1ccc(C)cc1 (stereo not given) |  | Active | 6 µM | inactive | Active | Active | Active | Active |
| 300 µg/mL (≈ 1640 µM) | ≥ 300 µg/mL | 75 µg/mL (≈ 409 µM) | C=C1C(=O)ON(C)C1C(C)CCC (stereo not given) | 4.1 µM | Active | 2.5 µM |  | Active | Active | Active | Active |
